PubChem BioAssay (NCI)
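Test compounds were applied to cells in 96-well plates for 48 hours at 5 doses. TGI: concentration producing complete growth inhibition.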

Columns and labels:
Experiment in all cases: NCI tumour cell line growth inhibition, 48 h
OVCAR-8 ovarian = system: OVCAR-8 ovarian
HCT-15 colon = system: HCT-15 colon
SR leukemia = system: SR leukemia
OVCAR-4 ovarian = system: OVCAR-4 ovarian
HL-60(TB) leukemia = system: HL-60(TB) leukemia
LOX IMVI melanoma = system: LOX IMVI melanoma
UO-31 renal = system: UO-31 renal
SK-MEL-2 melanoma = system: SK-MEL-2 melanoma
K-562 leukemia = system: K-562 leukemia
786-0 renal = system: 786-0 renal
A498 renal = system: A498 renal
MALME-3M melanoma = system: MALME-3M melanoma
MOLT-4 leukemia = system: MOLT-4 leukemia

SMILES	TGI (OVCAR-8 ovarian)	TGI (HCT-15 colon)	TGI (SR leukemia)	TGI (OVCAR-4 ovarian)	TGI (HL-60(TB) leukemia)	TGI (LOX IMVI melanoma)	TGI (UO-31 renal)	TGI (SK-MEL-2 melanoma)	TGI (K-562 leukemia)	TGI (786-0 renal)	TGI (A498 renal)	TGI (MALME-3M melanoma)	TGI (MOLT-4 leukemia)
COC(=O)c1cc(NC(=O)Cc2c[nH]c3ccccc23)cn1C	> 100 µM	> 100 µM	> 100 µM	> 100 µM	> 100 µM	> 100 µM	> 100 µM	> 100 µM	> 100 µM	> 100 µM	> 100 µM	> 100 µM	> 100 µM
O=C(/C=C/c1ccccc1)Nc1ccccc1SCCCCl	> 69.8 µM	> 100 µM	64.7 µM	> 100 µM	43.6 µM	> 68.2 µM	91.6 µM	> 100 µM	> 100 µM	> 100 µM	> 29.5 µM	> 100 µM	> 100 µM
CSc1nc2c(c(=O)n1C)N=C(c1ccc([N+](=O)[O-])cc1)CC(c1ccccc1)N2 (configuration not stated)	> 100 µM	–	> 100 µM	> 100 µM	65.9 µM	> 100 µM	> 100 µM	> 100 µM	> 100 µM	> 100 µM	> 100 µM	> 100 µM	> 100 µM
CSc1ccc(Nc2cc(=O)[nH]c(=O)[nH]2)cc1	> 100 µM	> 100 µM	> 100 µM	> 100 µM	> 100 µM	> 100 µM	> 100 µM	> 100 µM	> 100 µM	> 100 µM	> 100 µM	> 100 µM	> 100 µM
CCOC(=O)c1nc2cc(C(F)(F)F)ccc2nc1Nc1ccc(C(=O)OC)s1	> 100 µM	> 100 µM	39.6 µM	> 100 µM	> 100 µM	> 100 µM	> 100 µM	43.5 µM	> 100 µM	84.8 µM	81.6 µM	> 100 µM	> 100 µM
O=C1O[C@H]2[C@H](OC(=O)c3cc(O)c(O)c(O)c3)[C@@H](OC(=O)c3cc(O)c(O)c4c3[C@@H]3C1=CC(=O)C(O)(O)C3(O)O4)[C@H](OC(=O)c1cc(O)c(O)c(O)c1)O[C@@H]2COC(=O)c1cc(O)c(O)c(O)c1 (some centres not stated)	> 100 µM	> 100 µM	> 100 µM	> 100 µM	> 100 µM	> 100 µM	> 100 µM	> 100 µM	> 100 µM	> 100 µM	> 100 µM	> 100 µM	> 100 µM
CC(C)CC(N)C(=O)Nc1ccc2ccccc2c1 (configuration not stated)	> 100 µM	> 100 µM	> 100 µM	54.5 µM	> 100 µM	> 100 µM	> 100 µM	> 100 µM	> 100 µM	> 100 µM	> 100 µM	> 100 µM	> 100 µM
CC1=C(O)c2ccccc2C(=O)C1=O	> 100 µM	> 100 µM	> 100 µM	> 100 µM	> 100 µM	> 100 µM	> 65.3 µM	> 100 µM	> 100 µM	> 100 µM	> 100 µM	> 100 µM	> 100 µM
O=C(CSCC(=O)N/N=C\c1cccc([N+](=O)[O-])c1)N/N=C\c1cccc([N+](=O)[O-])c1	> 100 µM	67.8 µM	> 100 µM	> 100 µM	> 100 µM	> 100 µM	> 100 µM	> 100 µM	–	63.6 µM	> 100 µM	69.1 µM	> 100 µM
COc1ccc(N=NC(=O)NC(CC(C)C)C(=O)NCC(=O)O)cc1 (configuration not stated)	> 100 µM	> 100 µM	> 100 µM	> 100 µM	> 100 µM	> 100 µM	10.7 µM	> 100 µM	> 29.1 µM	> 100 µM	> 100 µM	> 100 µM	> 100 µM
O=[S@]1c2ccc3ccccc3c2N[C@@H]2[C@H]1[C@H]1C=C[C@@H]2C1	> 100 µM	> 100 µM	> 100 µM	> 100 µM	63 µM	> 100 µM	> 100 µM	> 100 µM	> 100 µM	> 100 µM	> 100 µM	> 100 µM	> 100 µM
O=C1CCc2ccc(O)c(c2)Oc2ccc(cc2)C(Sc2ccccc2)CCO1 (configuration not stated)	37.3 µM	29.9 µM	76 µM	26.1 µM	> 100 µM	25.8 µM	33.4 µM	37.3 µM	40 µM	29.6 µM	31.8 µM	27.9 µM	> 100 µM
COc1ccc2c(c1)CCCN1CCc3ccccc3C21 (configuration not stated)	> 100 µM	> 100 µM	61.2 µM	> 100 µM	43.3 µM	> 100 µM	–	> 100 µM	> 100 µM	69.9 µM	> 100 µM	> 100 µM	> 100 µM
COc1ccc(-c2c3c(n(C4OC(CO)C(O)C(O)C4O)c(=S)c2C#N)CCCC3)cc1 (configuration not stated)	> 100 µM	> 100 µM	> 100 µM	> 100 µM	> 100 µM	> 100 µM	–	> 100 µM	–	> 100 µM	> 100 µM	> 100 µM	> 100 µM
